# Experimental data as given in US20050153943A1, “Methods of simultaneously treating mucositis and fungal infection” (priority 2002, published 2005).
# Structures can show the parent of a compound that is named as a salt. Marks after values point to notes of the source that are not given here.
# Columns and labels:
# [1] = system: 11 different species of fungi; assay: Summary of Example 40 over the whole panel; assay type: cell-based; conditions: 11 tested fungi, up to 4.00 μg/ml
# Method: (§1) Each drug was dissolved in DMSO (1.0 mg/ml) as a stock solution and stored at −20° C. Just prior to use, each stock solution was thawed and diluted in DMSO to produce 6 different 100× concentrations. Potato dextrose agar was dissolved in distilled water (39 g/L) and sterilized at […] (250° F.) for 15 min. The agar solution was mixed with each drug (in a water bath at 60° C.) to make a series of final concentrations, i.e. 0.00, 0.25, 0.50, 1.00, 2.00, 4.00 μg/ml. The mixtures were then transferred to 24-well plates (1 ml/well). After the gel had formed, the fungus in PBS (spore count=1-5×10^4/ml) was inoculated by pipetting 10 μl onto each gel. The plates were incubated at 30° C. for different times, depending on the requirement of each species, e.g. 24 hours for Penicillium, Rhizopus, Tricothecium, Ulocladium, Absidia, Aspergilus, Caindida, Cunninghamella, 3 days for Scedosporium, and 5 days for Fonsecae and Phialophora.
# (§2) “*” indicates better than or similar results to Amphotericin B. “NI” indicates no detectable inhibition.
# [2] = system: Penicillium Species; assay: IC50 and MIC on microplate agar gels (Example 40); assay type: cell-based; conditions: agar gel, 0.25-4.00 μg/ml, 30° C., 24 hours; NI = no detectable inhibition
# Method: as §1, §2
# [3] = system: Scedosporium Apiospermum; assay: IC50 and MIC on microplate agar gels (Example 40); assay type: cell-based; conditions: agar gel, 0.25-4.00 μg/ml, 30° C., 3 days; NI = no detectable inhibition
# Method: as §1, §2
# [4] = system: Candida Albicans; assay: IC50 and MIC on microplate agar gels (Example 40); assay type: cell-based; conditions: agar gel, 0.25-4.00 μg/ml, 30° C., 24 hours; NI = no detectable inhibition
# Method: as §1, §2
# [5] = system: Ulocladium Species; assay: IC50 and MIC on microplate agar gels (Example 40); assay type: cell-based; conditions: agar gel, 0.25-4.00 μg/ml, 30° C., 24 hours; NI = no detectable inhibition
# Method: as §1, §2
# [6] = system: Absidia Species; assay: IC50 and MIC on microplate agar gels (Example 40); assay type: cell-based; conditions: agar gel, 0.25-4.00 μg/ml, 30° C., 24 hours; NI = no detectable inhibition
# Method: as §1, §2
# [7] = system: Aspergilus Fumigatus; assay: IC50 and MIC on microplate agar gels (Example 40); assay type: cell-based; conditions: agar gel, 0.25-4.00 μg/ml, 30° C., 24 hours; NI = no detectable inhibition
# Method: as §1, §2
# [8] = system: Fonsecae Species; assay: IC50 and MIC on microplate agar gels (Example 40); assay type: cell-based; conditions: agar gel, 0.25-4.00 μg/ml, 30° C., 5 days; NI = no detectable inhibition
# Method: as §1, §2
# [9] = system: Rhizopus Species; assay: IC50 and MIC on microplate agar gels (Example 40); assay type: cell-based; conditions: agar gel, 0.25-4.00 μg/ml, 30° C., 24 hours; NI = no detectable inhibition
# Method: as §1, §2
# [10] = system: Penicillium spores; assay: Fungistatic or fungicidal activity: pre-treatment of spores, dilution, regrowth on agar (Example 41); assay type: cell-based; conditions: for Growth rate of Penicillium in control cultures with low drug concentration: 0.01 and 0.05 μl/ml, no pre-treatment; for Type of antifungal activity (fungistatic or fungicidal): against Penicillium; for Growth of Penicillium on agar gels after pretreatment of spores: pretreatment with 10 and 50 μl/ml for 24 hours at 30° C., diluted 1000 times, 48 hours on agar
# Method: In the pre-treatment phase of the experiment, Penicillium spores were suspended in PBS to achieve a spore count of 10^7/ml. CMT-3 and Amphotericin B were dissolved in DMSO to reach a concentration of 1.0 mg/ml as stock solutions. 10 or 50 μl aliquots of these stock solutions were added to the incubation mixture (containing 1.0 ml of 10^7/ml of Penicillium spores in PBS) to achieve a final concentration of 10 μg/ml or 50 μg/ml, respectively, for both drugs. The various incubations of Penicillium were carried out for 24 hours at 30° C.
# After the pre-treatment phase, the reaction mixtures were diluted 1000 times with PBS, reducing the concentration of both drugs to 0.01 μg/ml or 0.05 μg/ml, and reducing the Penicillium spore count to 10^4/ml. These drug concentrations of both CMT-3 and Amphotericin B would not be expected to inhibit the growth of the viable Penicillium spores.
# Controls were then prepared. Before incubation, each tube was either not diluted further, or diluted to ½ or ¼ with PBS to produce tubes with three different spore counts, ie, 10^4/ml, or 0.5×10^4/ml, or 0.25×10^4/ml. These cultures were then inoculated on potato dextrose agar gels in 24-well plates, and incubated at 30° C. for 48 hours to determine the rate of growth of the fungus as described before.
# The controls were prepared from the suspension in the pre-treatment phase containing only Penicillium spores 10^7/ml, and PBS. This control was diluted by 1000 times with PBS to produce a spore count of 10^4/ml. 1.0 ml of this diluted spore suspension was added to eight tubes. The stock solutions of CMT-3 and Amphotericin B, and DMSO were also diluted by 1000 times with PBS (the new concentration being 1.0 μg/ml for both drugs and 0.1% for DMSO), and 10 or 50 μl of these solutions was added into the above tubes. The final concentrations in each tube was either 0.01 μg/ml or 0.05 μg/ml for both drugs (CMT-3 or AmB), or 0.001% or 0.005% for DMSO. These tubes were further treated as described above to determine the growth of the fungus as controls.
# [11] = system: Aspergillus f.; assay: Direct comparison of CMT-3 and Amphotericin B, agar plates (Example 39); assay type: cell-based
# [12] = system: Aspergillus f.; assay: as above; assay type: cell-based; remark: listed apart in the source
# Method: The plates were prepared as described above, using […], 0.50, 1.00 and 2.00 concentrations of each of the drugs tested. DMSO was used as a control
# [13] = system: Rhizopus sp.; assay: Fungal growth on SABHI agar containing CMT (Example 38); assay type: cell-based; conditions: 25 μg/ml agar, Example 38
# Method: The following fungi were inoculated onto potato dextrose agar (PDA) from stock cultures and incubated aerobically at 30° C.: Aspergillus [NT] 1022, Penicillium sp. (laboratory isolate), Candida albicans, ATCC 14053, and Rhizopus sp. […] The conidia were suspended in 0.9% saline and the turbidity was adjusted to match a 0.5 MacFarland standard (equivalent to approximately 1.5×10^8 cells). Candida albicans was suspended in saline and adjusted to 0.5 MacFarland in a similar manner. These suspensions were diluted 1:100 in sterile 0.9% saline. SABHI Agar (Difco) pH 7.0 was prepared in 100 ml amounts and sterilized at 121° C. for 15 min. […] SABHI Agar plates of each CMT and SAHBI agar without CMT using dimethylsulphoxide (DMSO) as a control were inoculated with 10 μl of conidia suspension of Aspergillus fumigatus, Penicillium sp. and Rhizopus sp. and 10 μl suspension of Candida albicans prepared as described above. The plates were then incubated aerobically for 24 hour and for 48 hours at 30° C. The results are set forth in Table 1 (24 hr. incubation) and Table 2 (48 hr. incubation). [table]
# [14] = system: eleven different species of fungi; conditions: cited from earlier work
# [15] = system: Tricothecium Species; assay: IC50 and MIC on microplate agar gels (Example 40); assay type: cell-based; conditions: agar gel, 0.25-4.00 μg/ml, 30° C., 24 hours; NI = no detectable inhibition
# Method: as §1, §2
# [16] = system: Cunninghamella Species; assay: IC50 and MIC on microplate agar gels (Example 40); assay type: cell-based; conditions: agar gel, 0.25-4.00 μg/ml, 30° C., 24 hours; NI = no detectable inhibition
# Method: as §1, §2
# [17] = system: Phialophora Verrucosa; assay: IC50 and MIC on microplate agar gels (Example 40); assay type: cell-based; conditions: agar gel, 0.25-4.00 μg/ml, 30° C., 5 days; NI = no detectable inhibition
# Method: as §1, §2
# [18] = Toxicity in vivo (statement); conditions: at 2.0 μg/ml concentration; unlike AmB
# [19] = single dose of two 100 mg minocycline HCl tablets; cited from earlier work
# [20] = 250 mg every six hours over a twenty-four hour period; cited from earlier work
SMILES,Antifungal activity over the panel (summary in words) [1],IC50 [2] [µg/mL],MIC [2] [µg/mL],IC50 [3] [µg/mL],MIC [3],IC50 [4] [µg/mL],MIC [4] [µg/mL],IC50 [5] [µg/mL],MIC [5],IC50 [6] [µg/mL],MIC [6],IC50 [7] [µg/mL],MIC [7],IC50 [8] [µg/mL],MIC [8],IC50 [9] [µg/mL],MIC [9] [µg/mL],Growth rate of Penicillium in control cultures with low drug concentration [10],Type of antifungal activity (fungistatic or fungicidal) [10],Growth of Penicillium on agar gels after pretreatment of spores [10],further results
"C[C@@H]1[C@H](O)[C@@H](C)/C=C/C=C/C=C/C=C/C=C/C=C/C=C/[C@H](O[C@@H]2O[C@H](C)[C@@H](O)[C@H](N)[C@@H]2O)C[C@@H]2O[C@](O)(C[C@@H](O)C[C@@H](O)[C@H](O)CC[C@@H](O)C[C@@H](O)CC(=O)O[C@H]1C)C[C@H](O)[C@H]2C(=O)O [AmB, Amphotericin B]",the same or less antifungal activity than CMT-3,0.12,0.25,4.0,>4 µg/mL,0.5,1.0,1.0,2.0 µg/mL,1.0,4.0 µg/mL,0.8,2.0 µg/mL,4.0,>4.0 µg/mL,0.4,1.0,did not inhibit the growth,fungistatic,same rate of growth as PBS and DMSO controls,Growth grade at Conc. 0.25 μg/ml [11]: 2 (50% reduction in growth of colonies compared to control.); Growth grade at Conc. 0.125 μg/ml [12]: 4 (Level of growth in the absence of anti-fungal agent (control).); Growth grade at Conc. 0.50 μg/ml [12]: 1 (75% reduction in growth in colonies compared to control.); Fungal growth inhibited ([12]; 1.0 μg/ml): 100%; Growth grade at Conc. 1.00 μg/ml ([12]; 1.00 μg/ml): 0 (complete inhibition of growth.); Fungal growth inhibited ([12]; 2.0 μg/ml): 100%; Growth grade at Conc. 2.00 μg/ml [12]: 0 (complete inhibition of growth.)
"NC(=O)C1=C(O)C[C@@H]2C[C@@H]3Cc4cccc(O)c4C(=O)C3=C(O)[C@]2(O)C1=O [COL 3, 6-demethyl-6-deoxy-4-dedimethylaminotetracycline]",effective on all 11 tested fungi,0.2,0.5,0.2,1.5* μg/ml,1.0,2.0,0.25,1.0* μg/ml,1.5,4.0* μg/ml,0.5,1.0* μg/ml,1.0,4.0* μg/ml,0.8,2.0,did not inhibit the growth,fungicidal,little or no growth,Anti-fungal activity (summary in words) [13]: inhibited; Anti-fungal activity in vitro (Lu et al.) [14]: anti-fungal activity with eight of the eleven species; IC50 [15]: 0.2 µg/mL; MIC [15]: 1.5* μg/ml; IC50 [16]: 2.0 µg/mL; MIC [16]: 4.0* μg/ml; IC50 [17]: 1.5 µg/mL; MIC [17]: 4.0* μg/ml; Growth grade at Conc. 0.25 μg/ml [11]: 2 (50% reduction in growth of colonies compared to control.); Toxicity in vivo [18]: very little toxicity; Growth grade at Conc. 0.125 μg/ml [12]: 4 (Level of growth in the absence of anti-fungal agent (control).); Growth grade at Conc. 0.50 μg/ml [12]: 1 (75% reduction in growth in colonies compared to control.); Fungal growth inhibited ([12]; 1.0 μg/ml): 95%; Fungal growth inhibited ([12]; 2.0 μg/ml): 100%; Growth grade at Conc. 2.00 μg/ml [12]: 0 (complete inhibition of growth.)
CN(C)c1ccc(O)c2c1C[C@H]1C[C@H]3[C@H](N(C)C)C(O)=C(C(N)=O)C(=O)[C@@]3(O)C(O)=C1C2=O [minocycline HCl],–,–,–,–,–,–,–,–,–,–,–,–,–,–,–,–,–,–,–,–,average minocycline serum level [19]: 2.24 µg/mL
CN(C)[C@@H]1C(O)=C(C(N)=O)C(=O)[C@@]2(O)C(O)=C3C(=O)c4c(O)cccc4[C@@](C)(O)[C@H]3C[C@@H]12 [tetracycline HCl],–,–,–,–,–,–,–,–,–,–,–,–,–,–,–,–,–,–,–,–,peak plasma concentration [20]: approximately 3 μg/ml
